Assays:
[1] = system: TNFα, IL-1β, and IL-6; assay: In vivo plasma cytokine measurement (ELISA); set-up: species or system rat; settings: rats; ICI118,551 or SR59230A prior to OR486, low, middle and high dose pooled; relative to vehicle prior to OR486
Procedure: Blood was centrifuged and plasma separated from red blood cells. Plasma IL-6 was measured in duplicate using enzyme-linked immunosorbant assay (ELISA) kits from R&D systems (Minneapolis, Minn., U.S.A.). Plasma TNFα and IL-1β were measured in duplicate by the University of North Carolina Proteomics Ilmmunotechnologies Core using ELISA kits from Biosource (Camarillo, Calif., U.S.A.) and the National Institute for Biological Standards and Control (UK), respectively.

[2] = system: 3T3-L1 adipocytes; assay: In vitro cytokine measurement (real time PCR of transcripts) in adipocytes; type: cell-based, mouse; settings: for increase in IL-6 mRNA levels in adipocytes: salmeterol 0.5 μM or CL316243 0.3 μM
Procedure: Cell growth media consisted of Dulbecco's modified Eagle's medium supplemented with 10% heat-inactivated fetal bovine serum (Sigma, St. Louis, Mo., U.S.A.) and 1× penicillin-streptomycin (Gibco, Carlsbad, Calif., U.S.A.). Cells were maintained in a humidified atmosphere of 95% air and 5% CO2.
Two days after reaching confluence in growth media, adipogenesis was induced by incubating cells in growth media containing 0.25 μM dexamethasone (Sigma), 0.5 mM IBMX (Sigma), and 1 μM insulin (Sigma). After an additional 2 days in growth media containing 1 μM insulin, cells were grown for 6-8 days in normal growth media.
Total RNA was isolated using the RNeasy Mini Kit (Qiagen, Valencia, Calif., U.S.A.). RNA was then treated with 2 units of DNase I (Ambion, Austin, Tex., U.S.A.) at 37° C. for 30 min. Reverse transcription was performed according to the manufacturer's instructions. Briefly, the reverse transcription reaction mixture consisted of 1 μg DNase 1-treated RNA, 500 ng oligo-dT12-18, 10 mM dNTP, 40 units RNasin (Promega, Madison, Wis., U.S.A.), and 200 units of reverse transcriptase SUPERSCRIPT III™ (Invitrogen, Carlsbad, Calif., U.S.A.). cDNA synthesis was carried out at 50° C. for 1 hr followed by inactivation of reverse transcriptase at 70° C. for 15 min.
Mouse macrophages (RAW 264.7) and […] preadipocytes (3T3-L1) were obtained from the University of North Carolina Tissue Culture Facility. Cell maintenance and 3T3-L1 preadipocyte differentiation is described herein below. For pharmacological experiments, cells were seeded at a density of 5×10^5 cells/well in a 12-well plate (Corning). Total RNA was isolated and reverse transcribed as described in the supplementary materials. TNFα, IL-1β, and IL-6 transcripts were quantitated in quadruplicate by real time polymerase chain reaction using TAQMAN® Gene Expression Assays (Applied Biosystems, Foster City, Calif., U.S.A.) in an ABI PRISM 7000 Sequence Detection System. TNFα, IL-1β, and IL-6 transcript levels were normalized to Glyceraldehyde-3-phosphate dehydrogenase (GAPDH).

[3] = system: Sprague-Dawley rats; assay: Mechanical and thermal pain behavior testing (von Frey monofilaments, radiant heat); type: in vivo, rat; settings: for blockade of OR486-induced hyperalgesia / heightened pain sensitivity: antagonist i.p. prior to OR486; for paw withdrawal latency to radiant heat after OR486, selective βAR antagonists: i.p. 10 min prior to OR486, ICI118,551 5.0 mg/kg; for paw withdrawal latency to radiant heat after OR486, selective βAR antagonists / paw withdrawal frequency to mechanical stimuli after OR486, selective βAR antagonists / paw withdrawal threshold to mechanical stimuli after OR486, selective βAR antagonists: SR59230A 5 or 50 mg/kg, betaxolol 0.1, 1.0, 10 mg/kg, relative to vehicle prior to OR486; for paw withdrawal frequency to mechanical stimuli after OR486, selective βAR antagonists / paw withdrawal threshold to mechanical stimuli after OR486, selective βAR antagonists: i.p. 10 min prior to OR486, ICI118,551 0.5 or 5.0 mg/kg; for paw withdrawal frequency to mechanical stimuli, antagonist in the absence of OR486 / paw withdrawal latency to radiant heat, antagonist in the absence of OR486 / paw withdrawal threshold to mechanical stimuli, antagonist in the absence of OR486: i.p. 10 min prior to vehicle, phentolamine 3, propranolol 3, SCH23390 0.2, spiperone 0.2, betaxolol 1.0, ICI118,551 0.5, SR59230A 5 mg/kg, relative to vehicle
Procedure: Rats were placed in plexiglass cages positioned over an elevated perforated stainless steel platform and habituated to the environment for 15-25 min prior to testing. Paw withdrawal threshold to punctate mechanical stimulation was assessed using the up-down method of Chaplan et al. (1994). A series of nine calibrated filaments (with bending forces of 0.40, 0.68, 1.1, 2.1, 3.4, 5.7, 8.4, 13.2, and 25.0 g; Sammons Preston Rolyan, Bolingbrook, Ill., U.S.A.) with approximately equal logarithmic spacing between stimuli (Mean±SEM: 0.232±0.04 units) were presented to the hind paw in successive order, whether ascending or descending. Filaments were positioned in contact with the hind paw for a duration of 3 s or until a withdrawal response occurred. Testing was initiated with the middle hair of the series (3.4 g). In the absence of a paw withdrawal response, an incrementally stronger filament was presented and in the event of a paw withdrawal, an incrementally weaker filament was presented. After the initial response threshold was crossed, this procedure was repeated four times in order to obtain a total of six responses in the immediate vicinity of the threshold. The presence of paw withdrawal (X) and absence of withdrawal (O) was noted together with the terminal filament used in the series of six responses. The 50% g threshold=(10^[Xf+kδ])/10,000, where Xf=value (in log units) of the final von Frey hair used; k=tabular value of pattern of positive (X) and negative (O) responses, and δ=mean difference (in log units) between stimuli.
Immediately following determination of the response threshold, paw withdrawal frequency (%) to punctate mechanical stimulation was assessed. A von Frey monofilament with a calibrated bending force of 25 g was presented to the hind paw 10 times for a duration of 1 s with an interstimulus interval of approximately 1 s. Mechanical hyperalgesia was defined as an increase in the percentage frequency ([# of paw withdrawals/10]×100) of paw withdrawal evoked by stimulation with von Frey monofilaments.
Thermal hyperalgesia was evaluated using the radiant heat method of Hargreaves et al. (1988) in the same animals evaluated for responsiveness to von Frey monofilaments. Radiant heat was presented through the floor of a finely perforated stainless steel platform to the midplantar region of the hind paw.
After establishing stable baseline responsiveness to mechanical and thermal stimuli, separate groups of rats received intraperitoneal injections of OR486 (30 mg/kg i.p.; N=8) or vehicle (N=8) one hour prior to behavioral testing. Responsiveness to von Frey filaments was reassessed at 30 min intervals for 2 hours. Paw withdrawal latencies to radiant heat were subsequently assessed at 2.5 hours into the testing procedure. Twenty-four hours later, baseline responsiveness to mechanical and thermal stimuli was reestablished. Animals received OR486 (30 mg/kg i.p.) or vehicle (consistent with the previous day). Thirty minutes following administration of drug or vehicle, separate groups of rats received intraplantar carrageenan (N=4 per group) or saline (N=4 per group). Responsiveness to von Frey filaments was reassessed at 30 min intervals for 2 hours following the induction of inflammation. Paw withdrawal latencies to radiant heat were subsequently assessed at 2.5 hours post carrageenan.
Rats were handled and habituated to the testing environment 2-3 days prior to establishing baseline responsiveness. On test days, rats were placed in plexiglass cages positioned over an elevated perforated stainless steel platform and habituated to the environment for 15-20 minutes prior to testing. Paw withdrawal threshold to punctate mechanical stimulation was assessed using the up-down method of Chaplan (Chaplan et al. (1994)). […]

[4] = system: Mouse macrophages (RAW 264.7); assay: In vitro cytokine measurement (real time PCR of transcripts) in macrophages; type: cell-based
Procedure: Cell growth media consisted of Dulbecco's modified Eagle's medium supplemented with 10% heat-inactivated fetal bovine serum (Sigma, St. Louis, Mo., U.S.A.) and 1× penicillin-streptomycin (Gibco, Carlsbad, Calif., U.S.A.). Cells were maintained in a humidified atmosphere of 95% air and 5% CO2. Total RNA was isolated using the RNeasy Mini Kit (Qiagen, Valencia, Calif., U.S.A.). RNA was then treated with 2 units of DNase I (Ambion, Austin, Tex., U.S.A.) at 37° C. for 30 min. Reverse transcription was performed according to the manufacturer's instructions. Briefly, the reverse transcription reaction mixture consisted of 1 μg DNase 1-treated RNA, 500 ng oligo-[…], 10 mM dNTP, 40 units RNasin (Promega, Madison, Wis., U.S.A.), and 200 units of reverse transcriptase SUPERSCRIPT IIITM (Invitrogen, Carlsbad, Calif., U.S.A.). cDNA synthesis was carried out at 50° C. for 1 hr followed by inactivation of reverse transcriptase at 70° C. for 15 min. […] Cell maintenance and 3T3-L1 preadipocyte differentiation is described herein below. For pharmacological experiments, cells were seeded at a density of 5×10^5 cells/well in a 12-well plate (Corning). Total RNA was isolated and reverse transcribed as described in the supplementary materials. […] TNFα, IL-1β, and IL-6 transcript levels were normalized to Glyceraldehyde-3-phosphate dehydrogenase (GAPDH).

[5] = pretreatment 30 min: betaxolol 0.3 μM, ICI118,551 0.3 μM, SR59230A 0.1 μM, then salmeterol 0.5 μM 1 hr
[6] = 1 hr treatment, normalized to GAPDH
[7] = salmeterol 0.5 μM, 1 hr treatment, normalized to GAPDH

Compound	levels of IL-1β after OR486, selective β2 or β3 antagonist [1]	levels of IL-6 after OR486, selective β2 or β3 antagonist [1]	levels of TNFα after OR486, selective β2 or β3 antagonist [1]	blockade of CL316243-induced increase in adipocyte IL-6 transcript levels ([2]; pretreatment 30 min: betaxolol 0.3 μM, ICI118,551 0.3 μM, SR59230A 0.1 μM, then CL316243 0.3 μM 1 hr)	blockade of OR486-induced hyperalgesia / heightened pain sensitivity [3]	paw withdrawal latency to radiant heat after OR486, selective βAR antagonists [3]	paw withdrawal frequency to mechanical stimuli after OR486, selective βAR antagonists [3]	paw withdrawal threshold to mechanical stimuli after OR486, selective βAR antagonists [3]	paw withdrawal frequency to mechanical stimuli, antagonist in the absence of OR486 [3]	paw withdrawal latency to radiant heat, antagonist in the absence of OR486 [3]	paw withdrawal threshold to mechanical stimuli, antagonist in the absence of OR486 [3]	blockade of salmeterol-induced increase in adipocyte TNFα and IL-6 transcript levels [2, 5]	blockade of salmeterol-induced increase in macrophage IL-1β and IL-6 transcript levels [4, 5]	increase in IL-6 mRNA levels in adipocytes [2, 6] [fold]	increase in TNFα mRNA levels in adipocytes [2, 7] [fold]	increase in IL-1β mRNA levels in macrophages [4, 7] [fold]	increase in IL-6 mRNA levels in macrophages [4, 7] [fold]
CCc1ccccc1OC[C@@H](O)CN[C@H]1CCCc2ccccc21 [SR59230A, (1-(2-ethylphenoxy)-3-[[(1S)-1,2,3,4-tetrahydro-1-naphthalenyl]amino]-(2S)-2-propanol)]	decreased levels	decreased levels	decreased levels	completely blocked	partially blocked	increased paw withdrawal latency	decreased paw withdrawal frequency	increased paw withdrawal threshold	failed to affect	failed to affect	failed to affect						
Cc1ccc(OCC(O)C(C)NC(C)C)c2c1CCC2 (single isomer, unassigned; (-)) [ICI118,551, (−)-1-(2,3-[dihydro-7-methyl-1H-inden-4-yl]oxy)-3-([1-methylethyl]-amino)-2-butanol]	decreased levels	decreased levels	decreased levels		partially blocked	increased paw withdrawal latency	decreased paw withdrawal frequency	increased paw withdrawal threshold	failed to affect	failed to affect	failed to affect	completely blocked	completely blocked				
C[C@H](Cc1ccc2c(c1)OC(C(=O)[O-])(C(=O)[O-])O2)NC[C@H](O)c1cccc(Cl)c1.[Na+].[Na+] [CL316243, disodium (R,R)-5-(2-[{2-(3-chlorophenyl)-2-hydroxyethyl}-amino]propyl)-1,3-benzodioxole-2,2, dicarboxylate]														28			
OCc1cc(C(O)CNCCCCCCOCCCCc2ccccc2)ccc1O (stereo not shown) [salmeterol]														8	6	38	6.5
